This test relates to human hair follicles. Description: In vitro culture of human hair follicles (hair growth inhibition). The format is cell-based. Conditions: 50 follicles from 5 donors. On the procedure:
The hair follicles were incubated for 7 days at 37° C. under an atmosphere of air that was enriched with carbon dioxide (5 vol.-%). The length of hair follicles was monitored before being cultured, after 3 days of culture and after 7 days of culture. […] The test was done on hair follicles coming from 3-5 different donors. For each donor 10 follicles were cultured for each set of conditions. The results presented in table 2 are the cumulated results of all hair follicles.

Where [1] appears, read: with IGF-1 (30 ng/ml), 0.001 % P/v.

The structures appear in SMILES notation.

As to `C=C[C@@]1(C)CC(=O)[C@]2(O)[C@@]3(C)[C@@H](O)CCC(C)(C)[C@@H]3[C@H](O)[C@H](OC(C)=O)[C@@]2(C)O1` [Forskolin], under setting [1], the “increase in hair growth Day 3/Day 0” value was “+9%” and the “increase in hair growth Day 7/Day 0” value was “+17%”. Besides, under “without IGF-1, 0.001 % P/v”, the “increase in hair growth Day 3/Day 0” value is given as “+8%” and the “increase in hair growth Day 7/Day 0” value was “+15%”.

The record behind these values is patent US7722901B2, “Uses for the extract of a plant of the family Asclepiadaceae” (Cognis IP Management GmbH, priority 2004, dated 2010).
